Data set [1] addresses hNav1.6 (Homo sapiens, UniProt Q9UQD0). The data set is described as follows: cell-based. To be noted: QPatch. On the technique in general: The patch-clamp technique gives a direct electrical read-out from membranes.
For data set [2], the target named is hNav1.4 (Homo sapiens, UniProt P35499). The data set is described as follows: cell-based. The conditions noted are these: QPatch; read-out: Fitted Emax hNav1.4.
For data set [3] the following is noted: in words. The source says: Rats ~250–300 g were placed under Isoflurane anesthesia (4% for induction, 2% for maintenance). A single hip and proximal hind-leg area were shaved and the injection area prepped with alternating applications of chlorhexidine 2% soln. and isopropyl alcohol 70%. A pelvic notch just distal to the greater trochanter was located with palpation and a starter hole was made through the dermis using a 20G hypodermic needle. A 22G nerve stimulating injection needle (ProBloc II, cat#HN3S-40, Halyard Health) connected to a peripheral nerve stimulation device (EZstim II model ES400, Life-Tech, Inc.) was placed into the starter hole. The nerve stimulator was set to 0.7 mA and the injection needle was gently advanced in a line parallel to the femur until localized dorsal or plantar flexion of the foot was observed. Generalized muscle twitching involving primary twitching on the quadriceps muscle was considered a negative response and the needle was carefully re-positioned until the appropriate localized foot flicking was observed. […] The device was increased back to 0.2 mA and if twitching was still observed, the 100 μL injection was given.

Data set [4] concerns the target hNav1.1 (Homo sapiens, UniProt P35498). The data set is described as follows: cell-based. The conditions noted are these: QPatch; read-out: Fitted Emax hNav1.1.
In data set [5] the target is hNav1.3 (Homo sapiens, UniProt Q9NY46). The data set is described as follows: cell-based. To be noted: QPatch; read-out: Fitted Emax hNav1.3.
The conditions of data set [6]: for abnormal proprioception of hind paws / abnormal stepping / flaccidity / hindlimb weakness: baseline 0/7.
Data set [7] deals with hNav1.5 (Homo sapiens, UniProt Q14524). The data set is described as follows: cell-based. To be noted: QPatch; read-out: Fitted Emax hNav1.5.
hNav1.5, sequence (Q14524 whole entry): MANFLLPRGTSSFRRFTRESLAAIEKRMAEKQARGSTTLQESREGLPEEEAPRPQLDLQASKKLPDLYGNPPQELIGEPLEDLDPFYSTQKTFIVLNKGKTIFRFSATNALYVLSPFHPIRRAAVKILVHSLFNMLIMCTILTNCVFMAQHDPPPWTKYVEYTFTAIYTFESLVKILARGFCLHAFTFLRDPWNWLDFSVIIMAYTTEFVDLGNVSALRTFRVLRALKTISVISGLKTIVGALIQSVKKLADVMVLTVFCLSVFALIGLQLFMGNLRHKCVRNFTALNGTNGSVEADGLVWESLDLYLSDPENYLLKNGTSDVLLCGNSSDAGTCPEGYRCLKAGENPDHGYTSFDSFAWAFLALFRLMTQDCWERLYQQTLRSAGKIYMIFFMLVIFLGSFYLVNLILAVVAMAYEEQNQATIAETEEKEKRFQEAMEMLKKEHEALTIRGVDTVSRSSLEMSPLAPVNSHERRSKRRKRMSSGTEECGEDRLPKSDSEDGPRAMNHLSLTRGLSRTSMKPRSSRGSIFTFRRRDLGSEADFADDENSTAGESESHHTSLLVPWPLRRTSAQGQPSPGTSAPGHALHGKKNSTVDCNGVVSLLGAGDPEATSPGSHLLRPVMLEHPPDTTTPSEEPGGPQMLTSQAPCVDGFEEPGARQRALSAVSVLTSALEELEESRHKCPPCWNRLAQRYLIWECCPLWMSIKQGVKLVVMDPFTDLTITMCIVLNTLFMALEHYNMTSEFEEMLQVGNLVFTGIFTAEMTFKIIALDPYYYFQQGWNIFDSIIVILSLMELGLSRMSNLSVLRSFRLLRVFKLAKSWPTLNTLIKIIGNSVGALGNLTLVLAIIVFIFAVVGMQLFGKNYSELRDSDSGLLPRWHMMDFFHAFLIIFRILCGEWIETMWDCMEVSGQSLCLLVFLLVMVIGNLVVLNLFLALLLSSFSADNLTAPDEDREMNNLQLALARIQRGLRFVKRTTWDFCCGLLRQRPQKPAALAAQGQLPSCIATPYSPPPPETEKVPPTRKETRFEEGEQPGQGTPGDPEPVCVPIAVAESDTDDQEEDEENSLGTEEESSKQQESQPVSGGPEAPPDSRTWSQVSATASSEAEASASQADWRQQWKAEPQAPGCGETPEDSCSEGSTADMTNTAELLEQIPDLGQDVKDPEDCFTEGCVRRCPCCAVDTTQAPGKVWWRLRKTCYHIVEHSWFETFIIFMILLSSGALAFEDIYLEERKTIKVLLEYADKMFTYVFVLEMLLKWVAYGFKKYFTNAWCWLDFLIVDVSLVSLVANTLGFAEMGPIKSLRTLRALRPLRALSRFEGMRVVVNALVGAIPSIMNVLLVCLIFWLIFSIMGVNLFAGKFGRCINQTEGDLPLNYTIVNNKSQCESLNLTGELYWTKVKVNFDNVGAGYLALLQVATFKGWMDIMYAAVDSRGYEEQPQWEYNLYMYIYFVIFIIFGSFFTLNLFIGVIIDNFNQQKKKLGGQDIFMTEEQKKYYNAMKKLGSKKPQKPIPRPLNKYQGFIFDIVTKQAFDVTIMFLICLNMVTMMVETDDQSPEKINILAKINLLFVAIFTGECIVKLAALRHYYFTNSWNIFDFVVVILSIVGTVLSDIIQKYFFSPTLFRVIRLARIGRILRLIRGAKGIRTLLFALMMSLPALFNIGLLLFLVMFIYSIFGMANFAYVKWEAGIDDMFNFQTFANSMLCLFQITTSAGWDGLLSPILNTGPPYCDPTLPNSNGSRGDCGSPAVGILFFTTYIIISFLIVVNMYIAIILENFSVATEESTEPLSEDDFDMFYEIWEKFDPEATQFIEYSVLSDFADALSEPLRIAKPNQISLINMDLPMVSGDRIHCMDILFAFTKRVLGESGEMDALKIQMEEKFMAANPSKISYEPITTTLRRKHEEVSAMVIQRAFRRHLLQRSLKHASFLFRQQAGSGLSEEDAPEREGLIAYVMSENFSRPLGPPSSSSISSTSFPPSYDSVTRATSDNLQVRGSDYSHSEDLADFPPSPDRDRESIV
The target in data set [8] is hNav1.2 (Homo sapiens, UniProt Q99250). The data set is described as follows: cell-based. The conditions noted are these: QPatch; read-out: Fitted Emax hNav1.2.
[9] abbreviates: 2 μg/10 μl IT, 30 min post dosing.
[10] abbreviates: 2 μg/10 μl IT, 90 min post dosing.
Setting [11] is: 2 μg/10 μl IT, formalin study, in words.

Like-named read-outs stand apart in the source and are kept apart here.

The values that follow come from publication PMC5206724, “Insensitivity to pain induced by a potent selective closed-state Nav1.7 inhibitor” (Scientific Reports, 2017).

The term Emax denotes the maximal effect, on the per cent scale that the assay sets.

hNav1.6, sequence (Q9UQD0 whole entry): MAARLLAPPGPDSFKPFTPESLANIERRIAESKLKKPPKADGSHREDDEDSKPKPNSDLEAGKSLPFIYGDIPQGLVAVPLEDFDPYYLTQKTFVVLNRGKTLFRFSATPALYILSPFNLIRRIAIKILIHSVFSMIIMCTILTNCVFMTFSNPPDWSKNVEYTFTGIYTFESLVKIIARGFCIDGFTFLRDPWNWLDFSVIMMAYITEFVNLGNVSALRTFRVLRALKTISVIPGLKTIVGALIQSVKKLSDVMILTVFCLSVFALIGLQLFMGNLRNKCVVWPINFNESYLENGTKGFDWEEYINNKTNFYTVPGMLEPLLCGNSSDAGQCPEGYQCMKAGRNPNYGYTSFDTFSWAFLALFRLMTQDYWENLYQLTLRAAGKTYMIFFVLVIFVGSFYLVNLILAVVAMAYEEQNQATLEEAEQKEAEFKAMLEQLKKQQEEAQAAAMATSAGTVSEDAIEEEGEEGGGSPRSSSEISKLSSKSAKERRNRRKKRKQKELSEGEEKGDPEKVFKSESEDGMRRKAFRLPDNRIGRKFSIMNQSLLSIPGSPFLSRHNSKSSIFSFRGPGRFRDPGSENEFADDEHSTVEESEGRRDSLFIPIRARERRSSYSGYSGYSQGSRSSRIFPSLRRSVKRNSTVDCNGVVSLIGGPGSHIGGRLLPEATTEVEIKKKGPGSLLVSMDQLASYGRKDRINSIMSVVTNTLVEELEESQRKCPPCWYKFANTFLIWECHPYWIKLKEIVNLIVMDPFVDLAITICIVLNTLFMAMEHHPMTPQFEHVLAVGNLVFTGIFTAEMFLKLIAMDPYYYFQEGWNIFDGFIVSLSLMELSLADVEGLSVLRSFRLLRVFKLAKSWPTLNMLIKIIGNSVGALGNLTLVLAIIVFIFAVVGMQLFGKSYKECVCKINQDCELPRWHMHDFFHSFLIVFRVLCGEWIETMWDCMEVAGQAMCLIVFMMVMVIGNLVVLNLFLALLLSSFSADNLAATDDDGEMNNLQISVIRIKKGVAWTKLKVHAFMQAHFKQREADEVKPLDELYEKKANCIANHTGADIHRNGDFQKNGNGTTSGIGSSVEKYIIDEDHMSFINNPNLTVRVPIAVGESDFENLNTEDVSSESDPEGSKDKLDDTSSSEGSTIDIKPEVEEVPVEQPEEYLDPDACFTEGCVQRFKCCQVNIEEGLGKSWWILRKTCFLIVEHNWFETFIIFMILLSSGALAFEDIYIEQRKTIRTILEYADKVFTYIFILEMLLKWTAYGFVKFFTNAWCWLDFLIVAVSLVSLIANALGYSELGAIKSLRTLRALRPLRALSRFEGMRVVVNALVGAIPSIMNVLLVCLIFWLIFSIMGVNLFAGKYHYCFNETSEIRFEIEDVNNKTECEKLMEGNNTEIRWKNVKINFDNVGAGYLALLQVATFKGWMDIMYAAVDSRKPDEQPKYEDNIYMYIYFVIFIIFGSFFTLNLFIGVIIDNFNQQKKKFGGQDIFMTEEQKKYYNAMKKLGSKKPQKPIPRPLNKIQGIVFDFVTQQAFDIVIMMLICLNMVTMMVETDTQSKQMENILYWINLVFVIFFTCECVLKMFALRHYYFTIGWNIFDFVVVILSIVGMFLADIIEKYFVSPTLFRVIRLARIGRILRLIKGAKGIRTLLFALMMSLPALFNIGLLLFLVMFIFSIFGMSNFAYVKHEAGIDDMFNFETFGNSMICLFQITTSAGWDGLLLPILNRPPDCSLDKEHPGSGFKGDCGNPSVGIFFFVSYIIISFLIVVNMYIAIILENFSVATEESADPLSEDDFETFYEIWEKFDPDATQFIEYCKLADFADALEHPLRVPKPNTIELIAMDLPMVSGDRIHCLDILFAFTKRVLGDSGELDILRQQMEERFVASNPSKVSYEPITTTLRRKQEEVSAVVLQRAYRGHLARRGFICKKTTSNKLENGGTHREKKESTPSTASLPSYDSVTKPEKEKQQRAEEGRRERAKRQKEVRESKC

Take `CSCC[C@@H]1NC(=O)CNC(=O)[C@H](CCC(=O)O)NC(=O)[C@@H]2CSSC[C@H](NC(=O)[C@@H](N)Cc3ccc(O)cc3)C(=O)N[C@@H](CCC(N)=O)C(=O)N[C@@H](CCCCN)C(=O)N[C@@H](Cc3c[nH]c4ccccc34)C(=O)N[C@@H](CCSC)C(=O)N[C@@H](Cc3c[nH]c4ccccc34)C(=O)N[C@@H]([C@@H](C)O)C(=O)N[C@H]3CSSC[C@H](NC(=O)[C@H](C(C)C)NC1=O)C(=O)N[C@@H](CCCNC(=N)N)C(=O)N[C@@H](CC(C)C)C(=O)N[C@@H](Cc1c[nH]c4ccccc14)C(=O)N[C@H](C(=O)N[C@@H](CCCCN)C(=O)N[C@@H](CCCCN)C(=O)N[C@@H](CCCCN)C(=O)N[C@@H](CC(C)C)C(=O)N[C@@H](Cc1c[nH]c4ccccc14)C(=O)O)CSSC[C@H](NC(=O)[C@H](CCCCN)NC(=O)[C@H](CCCNC(=N)N)NC(=O)[C@H](CCC(=O)O)NC(=O)[C@H](CO)NC(=O)[C@H](CC(=O)O)NC3=O)C(=O)N2` [ProTX-II, reference compound]: in data set [1] (CHO cells, holding −60 mV, 0.1% BSA, ~22 °C, ± SEM, read-out: pIC50 hNav1.6 (converted)), the IC50 is 31.6 nM. Moreover, the Emax in data set [1] (read-out: Fitted Emax hNav1.6), in data set [2], in data set [4], in data set [5], in data set [7] and in data set [8] was 100% in each case. Also, the ambulation result in data set [3] (250 μg/100 μl peri-sciatic) is reported as “No effect upon ambulation”. Moreover, in data set [3] (250 μg/100 μl), the “tolerability, peri-sciatic” value was “well tolerated at the highest dose tested”. Besides, the figures for the “abnormal proprioception of hind paws” value in data set [6] (setting [9]) and in data set [6] (setting [10]) were 2/7 and 0/7, respectively. In addition, the abnormal stepping in data set [6] (setting [9]) is given as 2/7; in data set [6] (setting [10]), 0/7. For the same compound, the flaccidity is on record as 1/7 in data set [6] (setting [9]) and 0/7 in data set [6] (setting [10]). Further, the hindlimb weakness in data set [6] (setting [9]) and in data set [6] (setting [10]) was 2/7 throughout. Moreover, the abrasions and scabs entry in data set [6] (setting [11]) was “Abrasions and scabs to the face, neck, and shoulders were observed in some”. Besides, the “effect on motor function” value in data set [6] (setting [11]) is listed as “without any severe effect on motor function”. In addition, the “motor effects just above efficacious dose” value in data set [6] (rat, IT, in words) is “exerts profound motor effects at doses just above the efficacious analgesic dose”. For the same compound, the “motor effects above maximum tolerated IT dose” value in data set [6] (rat, higher than 2 μg/10 μl, in words) was “dose-related motor abnormalities that progressed from transient rear weakness, to paralysis of both the hind and forelimbs, slowing of respiration and death”. In addition, the “maximum tolerated dose (MTD), IT” value in data set [6] (rat, intrathecal) is given as 2 μg/10 μl. Also, the “lesions to the face and shoulders” value in data set [6] (rats, in words) was “often noticed”.
